# Test results taken from patent US8563742B2, “Substituted aminothiazole derivatives, pharmaceutical compositions, and methods of use” (High Point Pharmaceuticals, LLC, priority 2008, dated 2013).
# Target: T1, human MC-4R (Homo sapiens, UniProt P32245)
# T1 construct: expressed in transfected cells
# Assay: Biological Assay: inhibition of AgRP functional interaction with MC-4R in presence of αMSH (cAMP production)
# Format: cell-based
# Settings: Average EC50 (nM) in Biological Assay, HEK293 cells expressing human MC-4R, AgRP83-132 and αMSH present
# Protocol: The following method is illustrative of techniques that may be employed to measure the ability of the compounds of Formula (I) to functionally modulate the binding of AgRP to melanocortin receptors. In particular, the assay below measures the ability of compounds of Formula (I) or pharmaceutically acceptable salts thereof to functionally modulate the binding of AgRP to MC-4R in the presence of a MC-4R agonist, such as alpha-MSH.
# HEK293 cells stably expressing human MC-4R receptors were grown in high glucose Dulbecco's Modified Eagle Medium (DMEM) with 4500 mg glucose/L, L-glutamine, NaHCO3, pyrdoxin HCl, 10 mM HEPES (pH 7.4), 0.1 mM NEAA (non-essential amino acid medium) (GIBCO Cat#11140-050), 10% fetal bovine serum and 700 μg/mL G418. Cells were grown in T-225 flasks at 37° C. with CO2 and humidity control.
# On the day of assay, cells were washed twice with phosphate buffered saline without calcium and magnesium (PBS) and incubated with 10 mL PBS until the cells were detached from the flask. The detached cells were centrifuged at 240 g for 5 min. The cell pellet was re-suspended in assay buffer (Earle's balanced salt solution (Sigma E3024) supplemented with 10 mM HEPES, pH 7.4, 0.5 mM IBMX and protease inhibitor cocktail (Roche, 1 complete tablet/75 mL buffer)).
# The inhibitory or enhancement effect of compounds on AgRP activity was measured in a multi-component assay containing testing compounds, AgRP83-132 (human, Phoenix Pharma, cat no. 003-53), cells expressing MC-4R, and αMSH (Bachem, cat no. H-1075). Test compounds, AgRP and αMSH were diluted with assay buffer. Test compounds and AgRP were mixed to 4 times of the final concentration and incubated at room temperature for 30 min. Five μL of testing compound/AgRP solution followed with 10 μL of cells (20,000 cells/well) were added to each well of a 384-well reaction plate before 5 μL of αMSH was added. Cells were stimulated with αMSH for an additional 30 min at 37° C.
# Stimulation of cells was stopped by adding a lysis buffer and cells were lysed. The intracellular concentration of cAMP may be measured by various techniques known to one of skill in the art including, but not limited to, fluorescence polarization (FP) and time-resolved fluorescence (TRF).
# The inhibition was shown by an increase in MC-4R mediated cAMP production.
# T1 sequence (P32245 whole entry): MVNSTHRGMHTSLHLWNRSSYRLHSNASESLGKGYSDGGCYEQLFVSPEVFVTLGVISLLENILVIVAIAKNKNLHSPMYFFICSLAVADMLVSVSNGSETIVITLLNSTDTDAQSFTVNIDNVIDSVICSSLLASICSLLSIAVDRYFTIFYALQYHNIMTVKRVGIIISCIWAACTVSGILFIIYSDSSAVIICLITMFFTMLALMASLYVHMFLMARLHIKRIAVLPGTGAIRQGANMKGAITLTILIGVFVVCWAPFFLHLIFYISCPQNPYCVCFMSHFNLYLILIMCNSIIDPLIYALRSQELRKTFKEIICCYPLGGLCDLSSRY
row,Compound,EC50 [nM]
1,"CCc1ccc(CN(CCC(=O)O)c2nc(C3CCC(CC)CC3)cs2)s1 (stereo not drawn) [Example 20, 3-[[4-(4-Ethyl-cyclohexyl)-thiazol-2-yl]-(5-ethyl-thiophen-2-ylmethyl)-amino]-propionic acid]",389
2,"CC(C)C1CCC(c2csc(N(CCC(=O)O)Cc3ccc(S(C)(=O)=O)s3)n2)CC1 (stereo not drawn) [Example 37, 3-[[4-(4-Isopropyl-cyclohexyl)-thiazol-2-yl]-(5-methanesulfonyl-thiophen-2-ylmethyl)-amino]-propionic acid]",524

# Same assay, conditions: HEK293 cells expressing human MC-4R, AgRP83-132 and αMSH present; read-out: Average EC50 (nM) in Biological Assay
row,EC50 [nM],Compound
1,126,"CCc1ccc(CN(CCC(=O)O)c2nc(C3CC4CCC3C4)cs2)s1 (stereo not drawn) [Example 1, Sodium; 3-[(4-bicyclo[2.2.1]hept-2-yl-thiazol-2-yl)-(5-ethyl-thiophen-2-ylmethyl)-amino]-propionate]"
2,260,"CCc1ccc(CN(CCC(=O)O)c2nc([C@H]3CC[C@H](C(C)C)CC3)cs2)s1 [Example 10, Sodium; 3-[(5-ethyl-thiophen-2-ylmethyl)-[4-(4-trans-isopropyl-cyclohexyl)-thiazol-2-yl]-amino]-propionate]"
3,221,"CCc1ccc(CN(CCC(=O)O)c2nc(CC3CCC(C)CC3)cs2)s1 (stereo not drawn) [Example 15, 3-{(5-Ethyl-thiophen-2-ylmethyl)-[4-(4-methyl-cyclohexylmethyl)-thiazol-2-yl]-amino}-propionic acid]"
4,259,"CCc1ccc(CN(CCC(=O)O)c2nc(C3CCC(C(F)(F)F)CC3)cs2)s1 (stereo not drawn) [Example 17, 3-{(5-Ethyl-thiophen-2-ylmethyl)-[4-(4-trifluoromethyl-cyclohexyl)-thiazol-2-yl]-amino}-propionic acid]"
5,416,"Cc1ccc(CN(CCC(=O)O)c2nc(C3CCC(C(F)(F)F)CC3)cs2)s1 (stereo not drawn) [Example 18, 3-{(5-Methyl-thiophen-2-ylmethyl)-[4-(4-trifluoromethyl-cyclohexyl)-thiazol-2-yl]-amino}-propionic acid]"
6,394,"CCCC1CCC(c2csc(N(CCC(=O)O)Cc3ccc(CC)s3)n2)CC1 (stereo not drawn) [Example 22, 3-{(5-Ethyl-thiophen-2-ylmethyl)-[4-(4-propyl-cyclohexyl)-thiazol-2-yl]-amino]-propionic acid]"
7,79,"CCc1ccc(CN(CCC(=O)O)c2nc(C3CCC(F)(F)CC3)cs2)s1 [Example 24, Sodium; 3-[[4-(4,4-difluoro-cyclohexyl)-thiazol-2-yl]-(5-ethyl-thiophen-2-ylmethyl)-amino]-propionate]"
8,114,"Cc1ccc(CN(CCC(=O)O)c2nc(C3CCC(C(C)(C)C)CC3)cs2)s1 (stereo not drawn) [Example 27, 3-[[4-(4-tert-Butyl-cyclohexyl)-thiazol-2-yl]-(5-methyl-thiophen-2-ylmethyl)-amino]-propionic acid]"
9,171,"CCc1ccc(CN(CCC(=O)O)c2nc(C3CCC(C(C)(C)C)CC3)cs2)s1 (stereo not drawn) [Example 28, 3-[[4-(4-tert-Butyl-cyclohexyl)-thiazol-2-yl]-(5-ethyl-thiophen-2-ylmethyl)-amino]-propionic acid]"
10,427,"CSc1ccc(CN(CCC(=O)O)c2nc(C3CCC(C(C)(C)C)CC3)cs2)s1 (stereo not drawn) [Example 29, Sodium; 3-[[4-(4-tert-butyl-cyclohexyl)-thiazol-2-yl]-(5-methylsulfanyl-thiophen-2-ylmethyl)-amino]-propionate]"
11,3890,"COC1CCC(c2csc(N(CCC(=O)O)Cc3ccc(C)s3)n2)CC1 (stereo not drawn) [Example 30, 3-[[4-(4-Methoxy-cyclohexyl)-thiazol-2-yl]-(5-methyl-thiophen-2-ylmethyl)-amino]-propionic acid]"
12,2280,"CCc1ccc(CN(CCC(=O)O)c2nc(C3CCC(OC)CC3)cs2)s1 (stereo not drawn) [Example 32, 3-{(5-Ethyl-thiophen-2-ylmethyl)-[4-(4-methoxy-cyclohexyl)-thiazol-2-yl]-amino}-propionic acid]"
13,1230,"CCc1ccc(CN(CCC(=O)O)c2nc(C3CCC(OC)CC3)cs2)s1 (stereo not drawn) [Example 33, 3-{(5-Ethyl-thiophen-2-ylmethyl)-[4-(4-methoxy-cyclohexyl)-thiazol-2-yl]-amino}-propionic acid]"

# Second part, the molecule before the results:
row,Compound,EC50 [nM]
1,"CCC1(c2csc(N(CCC(=O)O)Cc3ccc(C)s3)n2)CCC(C(C)C)CC1 (mixture of isomers) [Example 41, Sodium; 3-[[4-(1-ethyl-4-isopropyl-cyclohexyl)-thiazol-2-yl]-(5-methyl-thiophen-2-ylmethyl)-amino]-propionate]",58
2,"CCc1ccc(CN(CCC(=O)O)c2nc(C3Cc4ccccc4C3)cs2)s1 [Example 11, 3-[(5-Ethyl-thiophen-2-ylmethyl)-(4-indan-2-yl-thiazol-2-yl)-amino]-propionic acid]",252
3,"Cc1ccc(CN(CCC(=O)O)c2nc(C3Cc4ccccc4C3)cs2)s1 [Example 12, 3-[(4-Indan-2-yl-thiazol-2-yl)-(5-methyl-thiophen-2-ylmethyl)-amino]-propionic acid]",384
4,"CCc1ccc(CN(CCC(=O)O)c2nc(C3CCc4ccccc4C3)cs2)s1 (stereo not drawn) [Example 13, 3-{(5-Ethyl-thiophen-2-ylmethyl)-[4-(1,2,3,4-tetrahydro-naphthalen-2-yl)-thiazol-2-yl]-amino}-propionic acid]",528
5,"Cc1ccc(CN(CCC(=O)O)c2nc(C3CCc4ccccc4C3)cs2)s1 (stereo not drawn) [Example 14, 3-{(5-Methyl-thiophen-2-ylmethyl)-[4-(1,2,3,4-tetrahydro-naphthalen-2-yl)-thiazol-2-yl]-amino]-propionic acid]",602
6,"Cc1ccc(CN(CCC(=O)O)c2nc(CC3CCC(C)CC3)cs2)s1 (stereo not drawn) [Example 16, 3-[[4-(4-Methyl-cyclohexylmethyl)-thiazol-2-yl]-(5-methyl-thiophen-2-ylmethyl)-amino]-propionic acid]",205
7,"Cc1ccc(CN(CCC(=O)O)c2nc(C3(c4ccc(F)cc4)CCCC3)cs2)s1 [Example 34, Sodium; 3-[{4-[1-(4-fluoro-phenyl)-cyclopentyl]-thiazol-2-yl}-(5-methyl-thiophen-2-ylmethyl)-amino]-propionate]",269
8,"Cc1ccc(C2(c3csc(N(CCC(=O)O)Cc4ccc(C)s4)n3)CCCC2)cc1 [Example 35, Sodium; 3-{(5-methyl-thiophen-2-ylmethyl)-[4-(1-p-tolyl-cyclopentyl)-thiazol-2-yl]-amino}-propionate]",132
9,"CC(C)(C)C1CCC(c2csc(N(CCC(=O)O)Cc3ccc(S(C)(=O)=O)s3)n2)CC1 (stereo not drawn) [Example 36, 3-[[4-(4-tert-Butyl-cyclohexyl)-thiazol-2-yl]-(5-methanesulfonyl-thiophen-2-ylmethyl)-amino]-propionic acid]",267
10,"CCc1ccc(CN(CCC(=O)O)c2nc(C3(CC(C)C)CCCC3)cs2)s1 [Example 43, 3-{(5-Ethyl-thiophen-2-ylmethyl)-[4-(1-isobutyl-cyclopentyl)-thiazol-2-yl]-amino}-propionic acid]",173
11,"Cc1cc(CN(CCC(=O)O)c2nc(C3(CC(C)C)CCCC3)cs2)c(C)s1 [Example 44, 3-{(2,5-Dimethyl-thiophen-3-ylmethyl)-[4-(1-isobutyl-cyclopentyl)-thiazol-2-yl]-amino}-propionic acid]",191
12,"CCC1(c2csc(N(CCC(=O)O)Cc3ccc(C)s3)n2)CCC(C)CC1 (stereo not drawn) [Example 45, Sodium; 3-[[4-(1-ethyl-4-methyl-cyclohexyl)-thiazol-2-yl]-(5-methyl-thiophen-2-ylmethyl)-amino]-propionate]",159
